{"source": "patent US20230122932A1", "about": "“NEW SEX PHEROMONE COMPONENTS FOR THE FALL ARMYWORM, SPODOPTERA FRUGIPERDA” (North Carolina State University, priority 2020, published 2023)", "key": {"[1]": {"tested_on": "male FAW", "assay": "Field assays, Hartstack traps in cotton field, 2-component pheromone mix with nonanal", "format": "in vivo, Spodoptera frugiperda", "method": "Field Assays: Formulations were tested under field conditions. Z9-14:OAc and Z7-12:OAc were diluted in hexane and 100 μL of the solution containing 100 μg and 0.58 μg of the respective compounds was loaded to a rubber septum (11 mm; Wheaton, DWK Life Sciences, Millville, N.J., United States of America). The septum was left inside a fume hood for 15 hr for the solvent to evaporate and then tested in field assays. Nonanal was diluted in paraffin oil and 100 μL of the solution was transferred to a vial dispenser. The solution contained either 0.1 μg or 1 μg, which corresponded to 0.1% and 1% of the amount of Z9-14:OAc. This dispenser constituted a 2 ml borosilicate vial covered with aluminum foil and contained 50 mg of deactivated glass wool. The vial was loaded with a nonanal solution and capped. […] A straightened metal paper clip pierced through the small cup of a pheromone-loaded rubber septum and was tied around the neck of a nonanal-loaded vial. This set was held by a steel alligator clip installed inside a Hartstack trap. We tested the attraction of male FAW to the following treatments: • Control: clean hexane loaded into a rubber septum and clean paraffin oil in a, vial dispenser • Pheromone mix: 100 μj of Z9-14:OAc and 0.58 μg of Z7-12:OAc in rubber septum and clean paraffin oil in vial dispenser • Pheromone 4-0.1% Nonanal: Pheromone mix in rubber septum and 0.1 μg of nonanal in vial dispenser • Pheromone+1% Nonanal: Pheromone mix in rubber septum and 1 μg of nonanal in vial dispenser\nThe Hartstack trap consisted of a conical body made of metal mesh with a removal top (H: 15 cm, ø=14 cm) in which males were trapped. Traps stood over the canopy of crops on rebars (L: 1.5 m) that were fixed to the ground. Traps were set for one week in a cotton field along the crop row, 15 m apart. Each experimental block consisted of 4 traps 15 m from each other. The next block was set 15 m from the first block and parallel to it. Each treatment was replicated once within a block and assigned randomly to trap positions. The number of trapped male FAW moths and other species were counted daily and traps were rotated.\nA second study repeated the same procedure described above but increased the amount of Z9-14:OAc and Z7-12:OAc in the mix to 1000 μg and 5.8 μg, respectively, and nonanal to 10, 20 and 40 μg. The attraction of male FAW was tested to the following treatments: • Control: clean hexane loaded into a rubber septum and clean paraffin oil loaded into a vial dispenser • Pheromone mix: 1000 μg of Z9-14:OAc and 5.8 μg of Z7-12:OAc in rubber septum and clean paraffin oil in vial dispenser (no nonanal). • Pheromone 4-1% Nonanal: Pheromone mix in rubber septum and 10 μg of nonanal in vial dispenser. • Pheromone+2% Nonanal: Pheromone mix in rubber septum and 20 μg of nonanal in vial dispenser. • Pheromone+4% Nonanal: Pheromone mix in rubber septum and 40 μg of nonanal in vial dispenser.\n(§1) Statistical analysis: All statistical analyses were performed in R (version 3.5.1). Behavioral responses of male FAW to formulations in the olfactometer were analyzed by binomial generalized linear model. Numbers of male FAW catches in the same day were combined per treatment and analyzed by Poisson generalized linear model (GLM). Treatments that had no catches were not included in the analyses."}, "[2]": {"tested_on": "FAW males", "assay": "No-choice linear olfactometer behavioral assay", "format": "in vivo, Spodoptera frugiperda", "method": "Behavioral Assay: A no-choice linear olfactometer assay was used to test the behavior of FAW males to different formulations. The olfactometer consists of a linear Plexiglas® tube (n=6 cm i.d., length=145 cm) that was connected to an air pump that generated an internal airflow speed of 0.1 m/s. A short Plexiglas® chamber filled with activated charcoal was connected to the opposite end of the olfactometer to filter the inward air. […] An aliquot of […] was added to a piece of filter paper and solvent was left to evaporate for 30 min at room temperature. Filter papers were introduced to the olfactometer through an opening (0=2 cm) on the top of the olfactometer, 4 cm away from the charcoal filter. Filter papers were tested only once. Moths were tested for 5 minutes and the sequence of their behavioral response was recorded as: activation (wing fanning and start moving upwind), reaching the half-way point of the olfactometer (HW), close approach to the odor source (CA), and source contact (contact). The experiment was conducted 4-7 hours into the scotophase.\nThe tested formulations were: […]\nas §1"}, "[3]": {"tested_on": "male FAW", "assay": "Field test with commercial lures plus nonanal, Hartstack traps in sorghum crop", "format": "in vivo, Spodoptera frugiperda", "method": "Field test with commercial formulation: The effect of adding nonanal to commercial formulations was tested in a sorghum crop for five days. Lures were purchased from two commercial suppliers, referred to herein as “Commercial Supplier A” (L105A from Seemly Biologicals Inc., Billings, Mont., United States of America) and “Commercial Supplier B” (FAW 3143 from Trécé, Adair, Okla., United States of America). These lures were formulated by the respective companies in rubber septa. Nonanal was formulated in the same way as described above and a straightened metal paper clip held together both the nonanal-loaded vial and the commercial lure. This set was installed inside a Hartstack trap and traps were positioned in the same manner described above. The attraction of male FAW to the following treatments was tested: • Commercial Supplier B lure combined with clean paraffin oil in vial dispenser (no nonanal). • Commercial. Supplier B lure combined with 20 μg of nonanal in vial dispenser. • Commercial Supplier A lure combined with clean paraffin oil in vial dispenser (no nonanal). • Commercial Supplier A lure combined with 20 μg of nonanal in vial dispenser.\nA second study was conducted in the same crop over a second five-day period, aimed to investigate different doses of nominal in combination with Commercial Supplier A lures. Using the same procedure described above, the attraction of male FAW was tested to the following treatments: • Commercial. Supplier A lure combined with clean paraffin oil in vial dispenser (no nonanal). • Commercial Supplier A lure combined with 10 μg of nonanal in vial dispenser. • Commercial Supplier A lure combined with 20 μg of nonanal in vial dispenser. • Commercial Supplier A lure combined with 40 μg of nonanal in vial dispenser. • Commercial Supplier A lure combined with 80 μg of nonanal in vial dispenser.\nas §1"}, "[4]": {"tested_on": "antenna of FAW males", "assay": "GC-EAD electrophysiology of female pheromone gland extract on male antenna", "set-up": "species or system Spodoptera frugiperda", "conditions": "1 μl female pheromone gland extract", "method": "Electrophysiology: The sex pheromone gland of ten 3-4-day old FAW females was dissected and placed in a glass insert containing 30 μl hexane (SupraSolv®; MilliporeSigma, Burlington, Mass., United States of America). After 10 min, the hexane extract was transferred to a second insert and concentrated down to 10 μl under a gentle flow of nitrogen. A gas chromatograph coupled to an electroantennogram detector (GC-EAD) was used to identify biologically active compounds that are perceived by the antenna of FAW males, since the antenna is the main olfactory organ of insects. The GC separates chemical mixes into individual compounds and directs them to the insect antenna, which is connected to an amplifier, the EAD. In parallel to the GC, the electrophysiological response of the antenna is recorded to identify the active compounds. An aliquot of 1 μl of the pheromone gland extract was injected in the GC-EAD where a male FAW antenna was mounted. Clean hexane that was handled in the same manner without glands was used as control."}, "[5]": {"conditions": "nonanal at all doses (0.05, 0.1, 1% relative to 100 ng Z9-14:OAc) added to 2-component formulation, N=15"}}, "note": "“Also recorded” adds a separate entry of the source.", "data": [{"smiles": "CCCCCCCCC=O", "note": "[nonanal]", "values": [{"measurement": "trap catch", "setting": "[1]; 0.1% nonanal (0.1 μg) added to 100 μg Z9-14:OAc + 0.58 μg Z7-12:OAc, cotton field", "result": "intermediate trap catch between the pheromone mix alone and with the addition of 1% nonanal"}, {"measurement": "improvement of male catches compared to the pheromone mix alone", "setting": "[1]; 1% nonanal (1 μg) added to 100 μg Z9-14:OAc + 0.58 μg Z7-12:OAc, cotton field", "result": 155, "unit": "%"}, {"measurement": "number of males caught per day", "setting": "[1]; 1% nonanal added to 100 μg Z9-14:OAc + 0.58 μg Z7-12:OAc, cotton field, three traps, six days", "result": "highest number of males caught"}, {"measurement": "nonanal percentage (compared to Z9-14:OAc) that rendered the highest number of trap catches in the field", "setting": "[1]; field assays", "result": "1 % (weight/weight)"}, {"measurement": "numbers of male FAW in traps", "setting": "[1]; nonanal 0.1 and 1 μg added to 100 μg Z9-14:OAc + 0.58 μg Z7-12:OAc, cotton field", "result": "significantly increased the numbers of male FAW in traps"}, {"measurement": "male catches per day, more than the pheromone alone", "setting": "[1]; second assay: 1% nonanal added to 1 mg Z9-14:OAc + 5 μg Z7-12:OAc, cotton field", "result": 100, "unit": "%"}, {"measurement": "number of males caught per day", "setting": "[1]; second assay: 1% nonanal added to pheromone mix (1 mg Z9-14:OAc), cotton field, nine days", "result": "highest number of male catches per day; also recorded: highest number of males caught"}, {"measurement": "number of males caught", "setting": "[1]; second assay: 2% nonanal added to pheromone mix (1 mg Z9-14:OAc), cotton field", "result": "decreased the number of males caught and was not significantly different from the pheromone formulation alone"}, {"measurement": "number of males caught", "setting": "[1]; second assay: 4% nonanal added to pheromone mix (1 mg Z9-14:OAc), cotton field", "result": "decreased the number of males caught and was not significantly different from the pheromone formulation alone"}, {"measurement": "trap catch", "setting": "[1]; second assay: nonanal alone (1% and 4%), no pheromone mix, cotton field", "result": "did not yield any catch; also recorded: did not catch any males"}, {"measurement": "males that reached the pheromone source", "setting": "[2]; 1% nonanal (1 ng) added to 2-component formulation (Formulation #4), N=15", "result": 100, "unit": "%"}, {"measurement": "effect on attraction / pheromone-triggered response of males", "setting": "[2]; nonanal 0.05, 0.1, 1% added to 2-component formulation, olfactometer", "result": "enhanced the attraction of male FAW"}, {"measurement": "males activated", "setting": "[2]; [5]", "result": 100, "unit": "%"}, {"measurement": "males that reached the pheromone source", "setting": "[2]; [5]", "result": "more than 66%"}, {"measurement": "increase of trap catches compared to commercial lure alone", "setting": "[3]; 20 μg (1%) nonanal added to Commercial Supplier A lure, sorghum field", "result": 46.5, "unit": "%"}, {"measurement": "increase of trap catches compared to commercial lure alone", "setting": "[3]; 20 μg (1%) nonanal added to Commercial Supplier B lure, sorghum field", "result": 53, "unit": "%"}, {"measurement": "number of males caught per day", "setting": "[3]; 20 μg nonanal added to Commercial Supplier A and B lures, sorghum field, four traps per treatment", "result": "significantly increased the number of males caught per day compared to the commercial lures alone"}, {"measurement": "number of males caught per day", "setting": "[3]; second study (FIG. 6): nonanal added to Commercial Supplier A (Scentry) lure, sorghum field, five days", "result": "significantly increased the number of males caught compared to the commercial lures alone"}, {"measurement": "number of males caught compared to the commercial lure alone", "setting": "[3]; second study: 80 μg (4%) nonanal added to Commercial Supplier A lure, sorghum field", "result": 52.4, "unit": "%"}, {"measurement": "trap catches", "setting": "[3]; second study: 1% nonanal added to Commercial Supplier A lure", "result": "only slightly increased the trap catches"}, {"measurement": "trap catches", "setting": "[3]; second study: 2% nonanal added to Commercial Supplier A lure", "result": "only slightly increased the trap catches"}, {"measurement": "trap catch", "setting": "[3]; second study: 8% nonanal added to Commercial Supplier A lure", "result": "decreased trap catch"}, {"measurement": "antennal (EAD) response", "setting": "[4]", "result": "active; also recorded: robust antennal responses"}]}]}
